Assay results taken from PubChem BioAssay AID504484 (Southern Research Specialized Biocontainment Screening …, 2011).

What follows are molecules tested on human PBMC HIV-1 replication, RT activity in supernatant (assay: HIV-1 replication inhibition in human PBMCs, dose response, cell-based, CXCR4-tropic HIV-1, primary PBMCs (AID 504484)).
COc1ccc(CCn2c(O)cc3nn(-c4nc5ccccc5s4)c(=O)c-3c2C)cc1 gave an IC50 of 5.45 µM. With Cc1c2c(=O)n(-c3nc4ccccc4s3)nc-2cc(O)n1CCc1cccs1 the IC50 was 28.7 µM. Molecule Cc1c2c(=O)n(-c3nc4ccccc4s3)nc-2cc(O)n1CCc1ccc(O)cc1 has an IC50 of 1.32 µM. In the case of Cc1c2c(=O)n(-c3nc4ccccc4s3)nc-2cc(O)n1Cc1ccc(F)cc1, the IC50 is reported as 7.48 µM. Work on Cc1c2c(=O)n(-c3nc4ccccc4s3)nc-2cc(O)n1Cc1cccs1 yielded an IC50 of 11.5 µM. Molecule COc1ccccc1Cn1c(O)cc2nn(-c3nc4ccccc4s3)c(=O)c-2c1C has an IC50 of 4.42 µM. Cc1c2c(=O)n(-c3nc4ccccc4s3)nc-2cc(O)n1Cc1ccncc1 gave an IC50 of 1.81 µM. For Cc1c2c(=O)n(-c3nc4ccccc4s3)nc-2cc(O)n1Cc1cccnc1, the IC50 was 2.86 µM. In the case of Cc1c2c(=O)n(-c3nc4ccccc4s3)nc-2cc(O)n1Cc1ccccc1Cl, the IC50 is reported as 7.44 µM. Molecule Cc1c2c(=O)n(-c3nc4ccccc4s3)nc-2cc(O)n1CCC(C)C has an IC50 of 5.68 µM. With COc1ccc(Cn2c(O)cc3nn(-c4nc5ccccc5s4)c(=O)c-3c2C)cc1 the IC50 was 7.71 µM. For Cc1c2c(=O)n(-c3nc4ccccc4s3)nc-2cc(O)n1C1CC1, the IC50 was 3.35 µM.
